From patent US20130295669A1, “METHOD FOR CONTROLLING BINDING OF CELLS TO A SUBSTRATE” (LONZA COLOGNE GMBH, priority 2010, published 2013)

Columns and labels:
[1] = test system: mesenchymal stem cells from bone marrow (BM-MSCs); test: Cell aggregation of BM-MSCs in suspension (deep-well) culture; assay type: cell-based; conditions: for cell clustering: suspension deep-well
Description: (§1) Cell aggregation (A), cell survival (B) and apoptosis (C) were assayed in presence or absence of different Blebbistatin concentrations up to seven days. ROCK inhibitor (Y-27532) was used as a positive control. Cells were added to deep-wells not supporting adherent growth. Different concentrations of Blebbistatin and Y-27632 were tested in suspension (deep-well, 130 RPM) and adhesion (six-well) culture on BM-MSCs (media containing 10% FBS).
(§2) B: Live cells were quantified by FACS using dye-exclusion assay (propidium iodide). […] The survival-enhancing effect of Blebbistatin appeared concentration dependent peaking at 10 μM and decreasing at both higher and lower concentrations of Blebbistatin. C: Apoptotic cells were quantified by FACS using Annexin V-assay (propidium iodide).

[2] = test system: mesenchymal stem cells from bone marrow (BM-MSCs); assay type: cell-based
Description: as §1, with “FBS). […] B: Live cells were quantified by FACS using dye-exclusion assay (propidium iodide). […] The survival-enhancing effect of Blebbistatin appeared concentration dependent peaking at 10 μM and decreasing at both higher and lower concentrations of Blebbistatin. C: Apoptotic cells were quantified by FACS using Annexin V-assay (propidium iodide).” for “FBS).”

[3] = test system: mesenchymal stem cells from bone marrow (BM-MSCs); test: Apoptosis by Annexin V staining and FACS; assay type: cell-based
Description: as §1, §2

BM-MSC cultures = test: Cell cycle profiles (G1/G0 and G2) by propidium iodide FACS with continuous BrdU incorporation; assay type: cell-based; conditions: suspension/shaking culture in deep-wells, up to 3 days
Excerpt: (§3) BM-MSC cultures were allowed to incorporate BrdU continuously and were sampled at different points of time (up to 3 days). Most cells are in G1/G0 phase (very dense culture), but there are also some G2-cells present. Absence of >4N cells (no multinucleated cells detected).
as §3, with “also” for “also some”, “detected). During continuous treatment in adherent T-flasks culture (G2/M) slight slowing down of the cell cycle was observed.” for “detected).”

BM-MSCs = test: Attachment of BM-MSCs to hydrophobic side of Lumox-biofoil bag; assay type: cell-based; conditions: 10 μM, 48 h treatment
Description: Colony and attached cells observed after 48 h treatment with <0.1% DMSO are shown. No significant attachment of cells could be observed.
Colony and attached cells observed after 48 h treatment with 10 μM Blebbistatin are shown. […] Thus, if compared to FIG. 6 (control), treatment with Blebbistatin results in an increased affinity of BM-MSCs to this surface.

[4] = test system: mesenchymal stem cells from bone marrow (BM-MSC); test: Dislocation of BM-MSCs with Trypsin/EDTA after pretreatment, and reseeding; assay type: cell-based; conditions: for effect against cell dislocation and clumping: 3 min Trypsin/EDTA; for cell proliferation (yield and viability) after reseeding: pretreatment before dislocation, 7 days in drug-free medium, 5000 cells/cm^2
Description: Subconfluent BM-MSCs were subjected to 4 h pretreatment (10 μM Blebbistatin or 10 μM Y-27632 vs control) and subsequent incubation for 3 min. with Trypsin/EDTA at 37° C. Cell counts were determined after dislocation of the cells from the surface of tissue culture flasks without specific coating (A). […] Dislocated cells are devoid of aggregates in drug-treated condition. […] Cells were reseeded (all conditions at same density: 5000 cells/cm^2) and cultured for additional 7 days in drug-free medium. After 7 days cell counts (B) and viability (C) were determined. […] An increase in cell proliferation (yield and viability) by Blebbistatin and less for Y-27632 treatment before dislocation in the subsequent drug-free passage (day 7) was also observed.

[5] = test system: mesenchymal stem cells from bone marrow (BM-MSC); test: BM-MSCs seeded on microcarriers for suspension culture; assay type: cell-based
Description: BM-MSCs were seeded on microcarriers for suspension culture in presence or absence of 10 μM Blebbistatin and allowed to proliferate for 6 days. After 24 h incubation without agitation the culture was sampled to determine cell count, Glucose consumption and cell seeding. After 5 additional days of incubation with agitation Glucose consumption (A), Lactate production (B), cell count (C) and cell seeding on carriers (DAPI-stain of cells on carrier, FIG. 11) were determined again. […] Accordingly, Blebbistatin has a protective effect on the cells resulting in enhanced proliferation after 6 days growth on microcarriers.

[6] = test system: human Embryonic Stem Cells (hESCs); test: Post-split attachment of hESCs on Matrigel-coated dishes in X-VIVO medium; assay type: cell-based
Description: The cells were cultured in defined X-VIVO medium containing no serum or animal-derived components on culture dishes coated with Matrigel®. A: No treatment with inhibitor (control), B: Transient treatment with 10 μM Blebbistatin (left micrograph: 4-fold magnification, right micrograph: 10-fold magnification), C: Culture 1 day after withdrawal of Blebbistatin. The post-split attachment of hESCs in X-VIVO has been low (A: 5-15%). When the culture was split (EDTA passage), the medium was supplemented with 10 μM of Blebbistatin. This increased the attachment of hESCs dramatically (B: 80-95%) compared to the post-split attachment of Blebbistatin-free hESC culture in X-VIVO. In fact, even the individualized hESCs attached very well. The media of the culture was replaced after 24 h with Blebbistatin-free X-VIVO to see how the cells stay attached and proliferate without Blebbistatin.

[7] = test system: mesenchymal stem cells from bone marrow (BM-MSC); test: BM-MSC attachment and proliferation on repellent Teflon foil; assay type: cell-based; conditions: 10 μM
Description: MSCs were cultured with 10 μM Bb for 4 days on repellent Teflon® foil and the cells attached to the foil were counted on day 4. Bars represent the number of cells per well. Control cultures: BM-MSCs in DMSO or PBS without inhibitor. […] Thus, BM-MSCs attach and proliferate on Teflon® foil.
MSCs were cultured with 10 μM Bb on repellent Teflon® foil until confluency was reached, the cells attached to the foil were counted on day 6 after cell seeding. Bars represent the number of cells per well. Control cultures: BM-MSCs in DMSO or PBS without inhibitor.

[8] = test system: stem cells from cord blood (CB-USSC); test: CB-USSC attachment and proliferation on repellent Teflon foil; assay type: cell-based; conditions: 10 μM
Description: USSCs were cultured with 10 μM Bb for 4 days on repellent Teflon® foil and the cells attached to the foil were counted on day 4. Bars represent the number of cells per well. Control cultures: CB-USSCs in DMSO or PBS without inhibitor. […] Thus, CB-USSCs attach and proliferate on Teflon® foil.
USSCs were cultured with 10 μM Bb on repellent Teflon® foil until confluency was reached, the cells attached to the foil were counted on day 6 after cell seeding. Bars represent the number of cells per well. Control cultures: CB-USSCs in DMSO or PBS without inhibitor.
USSCs were cultured with 10 μM Bb on repellent Teflon® foil dish and counted on day 4 after cell seeding. Bars represent the number of cells per well. Control cultures: CB-USSCs in DMSO or PBS without inhibitor. […] USSC attachment and proliferation on Teflon® foil in serum-reduced (EGM2) media is enhanced by myosin inhibition.
USSCs were cultured with 10 μM Bb on repellent Teflon® foil dish and counted on day 4 after cell seeding. Bars represent the number of cells per well. Control cultures: CB-USSCs in DMSO or PBS without inhibitor.

[9] = test system: stem cells from cord blood (CB-USSCs); test: CB-USSCs on PTFE vessel material; assay type: cell-based; conditions: 10 μM, 3 days on PTFE-vessel material
Description: USSCs were cultured with 10 μM Bb for 3 days on repellent PTFE-vessel material compared to control cultures.

[10] = test system: human embryonal stem cells (hEST); test: Cryopreservation recovery of human embryonal stem cells; assay type: cell-based
Excerpt: Usually only cell clusters can be cryopreserved, but not single ES cells.
Moreover, adding Blebbistatin before freezing is beneficial for cryopreserving single hESCs.

[11] = test system: human pluripotent stem cells; conditions: clonal density and suspension conditions; cited from earlier work
[12] = deep well culture, up to seven days, overall statement

## Cc1ccc2c(c1)C(=O)C1(O)CCN(c3ccccc3)C1=N2 (stereo not drawn) [Blebbistatin]
[1]; 10 μM
  cell clustering: prevents cell clustering
[1]; [12]
  cell aggregation: prevents or at least greatly reduces cell aggregation
[1]; less than 10 μM
  cell clustering: formed a single aggregate
[2]
  optimum concentration for eliminating cell death: 10 µM
[2]; [12]
  cell survival: enables cell survival
[2]; especially at 10-50 μM, adhesive/static or suspension/shaking
  cell death rates (propidium iodide, FACS): significantly eliminates cell death
[2]; suspension, decreasing at higher and lower concentrations
  concentration at which survival-enhancing effect peaks: 10 µM
[3]
  concentration of greatest anti-apoptotic effect: 10 µM
[3]; 10 μM, versus DMSO, PBS controls
  apoptotic cells (Annexin V-assay): protected against apoptosis
[3]; below 5 μM
  anti-apoptotic effect: merely a limited effect
[3]; [12]
  apoptosis: decreases apoptosis
[3]; suspension/shaking conditions
  cell death in suspension culture (AnnexinV staining): eliminates cell death in suspension culture
[3]; various inhibitor concentrations
  anti-apoptotic effect relative to Y-27632: comparable or stronger than that of Y-27632
BM-MSC cultures
  effect on cell cycle: no significant effect
BM-MSCs
  cells attached to hydrophobic surface: A significant number of cells is attached
[4]; 10 μM, 4 h pretreatment
  effect against cell dislocation and clumping: protective effects against cell dislocation and clumping
[4]; 10 μM, 4 h pretreatment, 3 min Trypsin/EDTA at 37° C.
  cell counts dislocated from tissue culture flasks: Fewer cells are dislocated
[4]
  cell proliferation (yield and viability) after reseeding: enhanced proliferation and viability
[5]; 10 μM, after 24 h without agitation
  cell seeding on microcarriers: markedly increased
[5]; 10 μM, after 6 days
  Glucose consumption: no effect
  Lactate production: no effect
[5]; 10 μM, after 6 days on microcarriers
  cell number: significantly increased
[5]; after 6 days of incubation
  cells adhering to microcarriers (DAPI-stain micrographs): much more cells adhere to the microcarriers
[6]; 10 μM, EDTA passage, X-VIVO medium, Matrigel
  post-split attachment of hESCs: 80-95%
[6]; medium replaced after 24 h, 1 day after withdrawal
  attachment and proliferation after withdrawal of Blebbistatin: no significant changes could be observed
[7]; day 4
  cell yield (cells attached to foil per well): significant increase in cell yield
[7]; day 6
  confluency on Teflon foil: do not form a completely confluent layer
[7]; day 6 after cell seeding
  cell yield (cells attached to foil per well): No differences in cell yield
[8]; day 4
  cell yield (cells attached to foil per well): highly significant increase in cell yield
[8]; day 4, low serum EGM2+Dex-media (3% serum)
  proliferation (cells per well): significantly enhanced proliferation
[8]; day 4, serum-free MSCGM-CD medium
  cell yield (cells per well): No apparent increase in cell yield
[8]; day 6
  confluency on Teflon foil: form confluent layers
[8]; day 6 after cell seeding
  cell yield (cells attached to foil per well): significant increase in cell yield
[9]
  cell spreading and aggregate formation: Markedly enhanced cell spreading but no aggregate formation
[10]
  cryopreservation recovery of single hESCs: increases the cryopreservation recovery of single hESCs to the comparable level of the recovery of hESC clusters
[10]; added before freezing
  effect of adding before freezing on cryopreserving single hESCs: beneficial
[11]
  survival rate of human pluripotent stem cells: increases the survival rate

## C[C@@H](N)[C@H]1CC[C@H](C(=O)Nc2ccncc2)CC1 [Y-27632]
[4]; 10 μM, 4 h pretreatment
  effect against cell dislocation and clumping: protective effects against cell dislocation and clumping
[4]
  cell proliferation (yield and viability) after reseeding: less
